Reference: the kinase profiling compilation of Christmann-Franck et al. (2016)

Key:
Assay in all cases: KINOMEscan competition binding
Details in all cases: compound 10.0 µM
ACVRL1 (human) = ACVRL1 (human) (UniProt P37023)
SBK1 (human) = SBK1 (human) (UniProt Q52WX2)
PIK3CA (human) = PIK3CA (human) (UniProt P42336)
ULK2 (human) = ULK2 (human) (UniProt Q8IYT8)
LRRK2 (human) = LRRK2 (human) (UniProt Q5S007)
CDK4 CCND1 (human) = CDK4 CCND1 (human) (UniProt P11802+P24385)
NUAK1 (human) = NUAK1 (human) (UniProt O60285)
STK10 (human) = STK10 (human) (UniProt O94804)
CLK1 (human) = CLK1 (human) (UniProt P49759)
BRAF (human) = BRAF (human) (UniProt P15056)
RIPK2 (human) = RIPK2 (human) (UniProt O43353)
EPHA5 (human) = EPHA5 (human) (UniProt P54756)
ZAP70 (human) = ZAP70 (human) (UniProt P43403)
MYLK2 (human) = MYLK2 (human) (UniProt Q9H1R3)
MAP3K3 (human) = MAP3K3 (human) (UniProt Q99759)
CAMK4 (human) = CAMK4 (human) (UniProt Q16566)
YSK4 (human) = YSK4 (human) (UniProt Q56UN5)
CRK2 (P.falciparum) = CRK2 (P.falciparum) (UniProt P61075)
TLK2 (human) = TLK2 (human) (UniProt Q86UE8)
MTOR (human) = MTOR (human) (UniProt P42345)
CDK5 (human) = CDK5 (human) (UniProt Q00535)
PIP5K1C (human) = PIP5K1C (human) (UniProt O60331)
MAPKAPK5 (human) = MAPKAPK5 (human) (UniProt Q8IW41)
CDK2 (human) = CDK2 (human) (UniProt P24941)
SIK1 (human) = SIK1 (human) (UniProt P57059)
NEK2 (human) = NEK2 (human) (UniProt P51955)
[1] = tested on: PIK3CA (human), P42336 [H1047L]
RET (human) = RET (human) (UniProt P07949)
RPS6KA5 KD2 (human) = RPS6KA5 KD2 (human) (UniProt O75582)
MAP3K10 (human) = MAP3K10 (human) (UniProt Q02779)
[2] = tested on: PIK3CA (human), P42336 [E542K]
MAP3K11 (human) = MAP3K11 (human) (UniProt Q16584)
SIK2 (human) = SIK2 (human) (UniProt Q9H0K1)
AURKC (human) = AURKC (human) (UniProt Q9UQB9)
WEE1 (human) = WEE1 (human) (UniProt P30291)
CDK3 (human) = CDK3 (human) (UniProt Q00526)
CSNK1A1 (human) = CSNK1A1 (human) (UniProt P48729)

Sequence of SBK1 (human) (Q52WX2 whole entry, looked up): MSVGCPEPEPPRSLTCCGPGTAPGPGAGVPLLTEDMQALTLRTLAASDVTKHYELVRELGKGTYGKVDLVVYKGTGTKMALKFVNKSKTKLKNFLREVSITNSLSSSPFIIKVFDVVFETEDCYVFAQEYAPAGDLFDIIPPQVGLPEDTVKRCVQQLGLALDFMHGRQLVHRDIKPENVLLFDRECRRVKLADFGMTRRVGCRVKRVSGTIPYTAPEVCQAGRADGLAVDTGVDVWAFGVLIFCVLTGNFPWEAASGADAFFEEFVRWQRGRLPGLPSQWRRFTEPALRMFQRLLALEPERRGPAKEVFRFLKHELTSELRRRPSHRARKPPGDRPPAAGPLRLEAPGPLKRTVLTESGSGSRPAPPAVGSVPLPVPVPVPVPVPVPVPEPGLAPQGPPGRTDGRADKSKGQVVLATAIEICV
Sequence of MAP3K10 (human) (Q02779 whole entry, looked up): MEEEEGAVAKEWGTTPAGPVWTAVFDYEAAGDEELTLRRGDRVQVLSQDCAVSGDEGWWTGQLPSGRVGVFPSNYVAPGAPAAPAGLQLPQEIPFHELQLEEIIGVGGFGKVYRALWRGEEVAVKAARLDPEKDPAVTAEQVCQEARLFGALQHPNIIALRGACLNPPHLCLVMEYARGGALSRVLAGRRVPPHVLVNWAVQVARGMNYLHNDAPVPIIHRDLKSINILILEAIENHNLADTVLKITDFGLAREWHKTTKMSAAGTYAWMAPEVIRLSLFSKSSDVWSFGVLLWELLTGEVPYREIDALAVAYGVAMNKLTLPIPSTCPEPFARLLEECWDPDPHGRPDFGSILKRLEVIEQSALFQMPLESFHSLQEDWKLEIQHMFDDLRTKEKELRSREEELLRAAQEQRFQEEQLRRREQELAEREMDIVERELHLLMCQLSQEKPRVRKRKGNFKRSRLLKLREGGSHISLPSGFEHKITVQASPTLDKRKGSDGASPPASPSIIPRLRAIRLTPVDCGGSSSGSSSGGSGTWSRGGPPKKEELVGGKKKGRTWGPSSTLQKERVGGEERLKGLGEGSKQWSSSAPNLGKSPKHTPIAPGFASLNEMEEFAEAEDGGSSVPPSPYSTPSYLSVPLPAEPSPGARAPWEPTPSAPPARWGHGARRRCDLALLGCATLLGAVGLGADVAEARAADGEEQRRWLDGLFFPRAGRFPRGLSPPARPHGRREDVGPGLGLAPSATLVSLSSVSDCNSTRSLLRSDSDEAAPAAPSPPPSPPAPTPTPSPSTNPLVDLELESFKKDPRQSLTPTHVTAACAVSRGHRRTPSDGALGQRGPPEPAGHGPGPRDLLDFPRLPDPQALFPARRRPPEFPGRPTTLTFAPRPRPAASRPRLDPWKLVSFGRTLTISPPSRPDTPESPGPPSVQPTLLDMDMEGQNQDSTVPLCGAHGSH
Sequence of MAPKAPK5 (human) (Q8IW41 whole entry, looked up): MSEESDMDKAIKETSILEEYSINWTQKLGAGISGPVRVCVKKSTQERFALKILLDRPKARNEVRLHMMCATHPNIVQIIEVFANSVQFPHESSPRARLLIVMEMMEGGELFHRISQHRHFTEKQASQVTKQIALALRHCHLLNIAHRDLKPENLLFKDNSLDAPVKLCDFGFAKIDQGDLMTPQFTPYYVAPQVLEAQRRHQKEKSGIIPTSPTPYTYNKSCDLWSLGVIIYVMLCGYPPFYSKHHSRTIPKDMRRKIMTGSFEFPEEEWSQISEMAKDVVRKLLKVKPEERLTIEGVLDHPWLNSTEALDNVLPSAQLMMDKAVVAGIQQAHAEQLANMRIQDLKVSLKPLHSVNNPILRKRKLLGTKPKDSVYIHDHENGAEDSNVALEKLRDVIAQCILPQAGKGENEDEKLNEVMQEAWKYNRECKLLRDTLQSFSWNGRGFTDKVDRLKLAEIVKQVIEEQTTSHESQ
Sequence of ZAP70 (human) (P43403 whole entry, looked up): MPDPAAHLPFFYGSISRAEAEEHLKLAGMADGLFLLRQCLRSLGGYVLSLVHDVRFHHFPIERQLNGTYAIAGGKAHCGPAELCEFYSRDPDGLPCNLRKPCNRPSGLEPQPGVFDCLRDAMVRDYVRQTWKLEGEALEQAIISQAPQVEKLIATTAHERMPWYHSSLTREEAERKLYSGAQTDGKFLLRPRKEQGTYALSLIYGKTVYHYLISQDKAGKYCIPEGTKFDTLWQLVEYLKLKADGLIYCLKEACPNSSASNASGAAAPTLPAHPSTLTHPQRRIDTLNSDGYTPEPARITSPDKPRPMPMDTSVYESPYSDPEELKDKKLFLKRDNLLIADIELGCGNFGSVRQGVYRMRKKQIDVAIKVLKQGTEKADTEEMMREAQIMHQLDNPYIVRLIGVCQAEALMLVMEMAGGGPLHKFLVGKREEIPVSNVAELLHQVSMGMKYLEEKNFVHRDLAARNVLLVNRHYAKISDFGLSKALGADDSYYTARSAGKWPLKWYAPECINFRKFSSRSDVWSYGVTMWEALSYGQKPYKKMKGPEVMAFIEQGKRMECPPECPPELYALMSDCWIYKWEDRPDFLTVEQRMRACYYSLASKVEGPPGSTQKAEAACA
Sequence of ACVRL1 (human) (P37023 whole entry, looked up): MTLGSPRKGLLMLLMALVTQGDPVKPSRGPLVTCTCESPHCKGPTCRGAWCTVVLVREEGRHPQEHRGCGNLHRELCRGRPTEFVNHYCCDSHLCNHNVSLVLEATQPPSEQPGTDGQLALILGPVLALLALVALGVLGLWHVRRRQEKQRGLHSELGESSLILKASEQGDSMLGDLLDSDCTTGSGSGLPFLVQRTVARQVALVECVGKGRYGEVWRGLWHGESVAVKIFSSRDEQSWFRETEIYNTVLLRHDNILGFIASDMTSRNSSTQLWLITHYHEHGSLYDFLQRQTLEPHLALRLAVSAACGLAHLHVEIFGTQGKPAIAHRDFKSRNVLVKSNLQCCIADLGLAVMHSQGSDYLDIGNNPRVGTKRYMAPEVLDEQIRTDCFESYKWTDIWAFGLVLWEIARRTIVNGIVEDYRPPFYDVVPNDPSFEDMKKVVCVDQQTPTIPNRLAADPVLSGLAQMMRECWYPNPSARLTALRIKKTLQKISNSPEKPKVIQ
Sequence of TLK2 (human) (Q86UE8 whole entry, looked up): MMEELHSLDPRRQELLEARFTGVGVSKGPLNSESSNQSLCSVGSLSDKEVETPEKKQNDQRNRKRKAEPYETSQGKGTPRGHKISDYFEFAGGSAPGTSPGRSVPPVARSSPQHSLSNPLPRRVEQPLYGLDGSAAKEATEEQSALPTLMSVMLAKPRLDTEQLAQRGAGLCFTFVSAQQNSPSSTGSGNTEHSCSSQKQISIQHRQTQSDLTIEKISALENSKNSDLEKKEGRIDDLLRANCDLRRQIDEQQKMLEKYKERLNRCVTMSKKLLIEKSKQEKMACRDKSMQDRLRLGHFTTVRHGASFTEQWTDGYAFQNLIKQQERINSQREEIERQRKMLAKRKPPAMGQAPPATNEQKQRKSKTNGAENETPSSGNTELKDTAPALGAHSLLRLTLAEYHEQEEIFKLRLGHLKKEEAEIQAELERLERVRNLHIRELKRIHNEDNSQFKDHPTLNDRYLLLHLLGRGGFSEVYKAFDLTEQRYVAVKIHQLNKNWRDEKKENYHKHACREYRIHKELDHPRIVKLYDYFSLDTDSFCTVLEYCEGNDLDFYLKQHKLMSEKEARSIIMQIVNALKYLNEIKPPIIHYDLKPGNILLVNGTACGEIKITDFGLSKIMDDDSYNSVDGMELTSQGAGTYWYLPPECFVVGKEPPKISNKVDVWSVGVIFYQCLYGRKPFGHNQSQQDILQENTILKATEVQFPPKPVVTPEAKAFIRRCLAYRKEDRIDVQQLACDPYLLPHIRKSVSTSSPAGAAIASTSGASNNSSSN
Sequence of CDK4 CCND1 (human) (P11802 whole entry, looked up): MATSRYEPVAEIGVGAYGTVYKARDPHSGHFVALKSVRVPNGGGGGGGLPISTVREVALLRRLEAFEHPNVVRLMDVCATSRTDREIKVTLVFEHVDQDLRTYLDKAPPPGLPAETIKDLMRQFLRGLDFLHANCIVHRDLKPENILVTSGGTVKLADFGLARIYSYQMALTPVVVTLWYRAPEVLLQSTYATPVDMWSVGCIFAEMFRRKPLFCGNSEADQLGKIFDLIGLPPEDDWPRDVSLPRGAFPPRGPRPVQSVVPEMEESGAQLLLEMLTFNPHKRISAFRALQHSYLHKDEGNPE
Sequence of CDK4 CCND1 (human) (P24385 whole entry, looked up): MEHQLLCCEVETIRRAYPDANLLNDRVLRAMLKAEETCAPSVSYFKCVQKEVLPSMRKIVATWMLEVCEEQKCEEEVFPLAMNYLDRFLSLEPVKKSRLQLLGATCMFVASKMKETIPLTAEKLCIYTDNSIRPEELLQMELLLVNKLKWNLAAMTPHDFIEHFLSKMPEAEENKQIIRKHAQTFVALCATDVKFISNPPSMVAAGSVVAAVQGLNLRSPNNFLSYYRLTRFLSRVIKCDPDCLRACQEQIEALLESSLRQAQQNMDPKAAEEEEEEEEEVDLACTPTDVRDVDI
Sequence of CLK1 (human) (P49759 whole entry, looked up): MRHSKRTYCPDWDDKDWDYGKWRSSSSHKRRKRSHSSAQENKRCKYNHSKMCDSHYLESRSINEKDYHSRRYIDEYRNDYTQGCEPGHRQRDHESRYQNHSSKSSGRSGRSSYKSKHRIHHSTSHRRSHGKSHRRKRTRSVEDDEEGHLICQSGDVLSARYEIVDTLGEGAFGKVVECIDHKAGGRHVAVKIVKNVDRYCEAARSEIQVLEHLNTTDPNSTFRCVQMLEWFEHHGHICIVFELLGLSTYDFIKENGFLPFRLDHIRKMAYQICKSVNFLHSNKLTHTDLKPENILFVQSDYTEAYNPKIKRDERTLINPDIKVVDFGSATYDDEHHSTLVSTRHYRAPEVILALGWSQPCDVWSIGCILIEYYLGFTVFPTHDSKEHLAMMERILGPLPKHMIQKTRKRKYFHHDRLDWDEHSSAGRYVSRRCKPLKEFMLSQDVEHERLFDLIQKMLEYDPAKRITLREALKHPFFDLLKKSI

Compound	kinase still bound, per cent of control (ACVRL1 (human)) [%]	kinase still bound, per cent of control (SBK1 (human)) [%]	kinase still bound, per cent of control (PIK3CA (human)) [%]	kinase still bound, per cent of control (ULK2 (human)) [%]	kinase still bound, per cent of control (LRRK2 (human)) [%]	kinase still bound, per cent of control (CDK4 CCND1 (human)) [%]	kinase still bound, per cent of control (NUAK1 (human)) [%]	kinase still bound, per cent of control (STK10 (human)) [%]	kinase still bound, per cent of control (CLK1 (human)) [%]	kinase still bound, per cent of control (RIPK2 (human)) [%]	kinase still bound, per cent of control (EPHA5 (human)) [%]	kinase still bound, per cent of control (ZAP70 (human)) [%]	kinase still bound, per cent of control (MYLK2 (human)) [%]	kinase still bound, per cent of control (MAP3K3 (human)) [%]	kinase still bound, per cent of control (CAMK4 (human)) [%]	kinase still bound, per cent of control (YSK4 (human)) [%]	kinase still bound, per cent of control (CRK2 (P.falciparum)) [%]	kinase still bound, per cent of control (TLK2 (human)) [%]	kinase still bound, per cent of control (MTOR (human)) [%]	kinase still bound, per cent of control (CDK5 (human)) [%]	further results
CCc1nc(-c2cccc(C)c2)c(-c2ccnc(NC(=O)c3ccccc3)c2)s1	85	100	100	100	100	84	100	59	92	1.2	90	100	96	92	99	64	100	87	100	100	kinase still bound, per cent of control (BRAF (human)): 40%; kinase still bound, per cent of control (PIP5K1C (human)): 100%; kinase still bound, per cent of control (MAPKAPK5 (human)): 100%; kinase still bound, per cent of control (CDK2 (human)): 100%; kinase still bound, per cent of control (SIK1 (human)): 100%; kinase still bound, per cent of control (NEK2 (human)): 95%; kinase still bound, per cent of control [1]: 100%; kinase still bound, per cent of control (RET (human)): 66%; kinase still bound, per cent of control (RPS6KA5 KD2 (human)): 100%; kinase still bound, per cent of control (MAP3K10 (human)): 100%; kinase still bound, per cent of control [2]: 100%; kinase still bound, per cent of control (MAP3K11 (human)): 70%; kinase still bound, per cent of control (SIK2 (human)): 62%; kinase still bound, per cent of control (AURKC (human)): 90%; kinase still bound, per cent of control (WEE1 (human)): 100%; kinase still bound, per cent of control (CDK3 (human)): 100%
N#Cc1cc(-c2ccnc(Nc3ccc(-n4cnc(-c5cccnc5)n4)cc3)n2)cc(N2CCOCC2)c1	100	100	100	90	94	100	100	39	2.5	53	91	70	56	30	100	0.25	100	65	100	79	kinase still bound, per cent of control (CSNK1A1 (human)): 60%; kinase still bound, per cent of control (PIP5K1C (human)): 100%; kinase still bound, per cent of control (MAPKAPK5 (human)): 100%; kinase still bound, per cent of control (CDK2 (human)): 30%; kinase still bound, per cent of control (SIK1 (human)): 73%; kinase still bound, per cent of control (NEK2 (human)): 94%; kinase still bound, per cent of control [1]: 100%; kinase still bound, per cent of control (RET (human)): 100%; kinase still bound, per cent of control (RPS6KA5 KD2 (human)): 100%; kinase still bound, per cent of control (MAP3K10 (human)): 72%; kinase still bound, per cent of control [2]: 100%; kinase still bound, per cent of control (MAP3K11 (human)): 46%; kinase still bound, per cent of control (SIK2 (human)): 33%; kinase still bound, per cent of control (AURKC (human)): 40%; kinase still bound, per cent of control (WEE1 (human)): 82%; kinase still bound, per cent of control (CDK3 (human)): 45%
CC1=C(C(=O)Nc2cc3cn[nH]c3cc2F)C(c2ccc(C(F)(F)F)cc2)CC(=O)N1 (stereo not drawn)	100	78	80	85	100	71	28	100	72	77	86	100	99	82	100	50	100	100	89	80	kinase still bound, per cent of control (CSNK1A1 (human)): 86%; kinase still bound, per cent of control (PIP5K1C (human)): 92%; kinase still bound, per cent of control (MAPKAPK5 (human)): 100%; kinase still bound, per cent of control (CDK2 (human)): 79%; kinase still bound, per cent of control (SIK1 (human)): 77%; kinase still bound, per cent of control (NEK2 (human)): 100%; kinase still bound, per cent of control [1]: 83%; kinase still bound, per cent of control (RET (human)): 20%; kinase still bound, per cent of control (RPS6KA5 KD2 (human)): 87%; kinase still bound, per cent of control (MAP3K10 (human)): 92%; kinase still bound, per cent of control [2]: 92%; kinase still bound, per cent of control (MAP3K11 (human)): 100%; kinase still bound, per cent of control (SIK2 (human)): 99%; kinase still bound, per cent of control (AURKC (human)): 33%; kinase still bound, per cent of control (WEE1 (human)): 94%; kinase still bound, per cent of control (CDK3 (human)): 77%
